Converted amounts (≈) assume the structure as drawn.
Assays:
[1] = tested on: racemase; settings: in words; literature; formed by bacterial peptidase; cited from earlier work
[2] = tested on: E. coli; test: Antibacterial activity, MIC by Method 1 (method of Atherton et al); format: cell-based; settings: for MIC: Escherichia coli, read-out: Minimum inhibiting concentration (MIC)
Method: (§1) Antibacterial activity was tested by two methods.
(§2) Minimum inhibiting concentration (MIC, μg/ml) was determined by the method of Atherton et al (Antimicrobial Agent and Chemotherapy 15, 677, 1979).
(§3) Antibacterial activity: MIC (μ g/ml) [by Method 1]

[3] = tested on: Streptococcus faecalis; test: as above; format: cell-based; settings: for MIC: Enterococcus faecalis, read-out: Minimum inhibiting concentration (MIC)
Method: as §1, §2, §3

[4] = tested on: E. coli TEM 2; test: as above; format: cell-based; settings: for MIC: Escherichia coli, TEM2, read-out: Minimum inhibiting concentration (MIC)
Method: as §1, §2, §3

[5] = tested on: Staphylococcus aureus; test: as above; format: cell-based; settings: for MIC: read-out: Minimum inhibiting concentration (MIC)
Method: as §1, §2, §3

[6] = as above; format: cell-based; settings: Enterococcus cloacae, read-out: Minimum inhibiting concentration (MIC)
Method: as §1, §2, §3

[7] = tested on: E. coli DC 2; test: as above; format: cell-based; settings: for MIC: Escherichia coli, DC2, read-out: Minimum inhibiting concentration (MIC)
Method: as §1, §2, §3

[8] = tested on: Serratia marcescens; test: as above; format: cell-based; settings: for MIC: read-out: Minimum inhibiting concentration (MIC)
Method: as §1, §2, §3

[9] = tested on: Pseudomonas aeruginosa; test: as above; format: cell-based; settings: for MIC: read-out: Minimum inhibiting concentration (MIC)
Method: as §1, §2, §3

[10] = tested on: Proteus vulgaris; test: as above; format: cell-based; settings: for MIC: read-out: Minimum inhibiting concentration (MIC)
Method: as §1, §2, §3

[11] = tested on: Salmonella typhimurium; test: as above; format: cell-based; settings: for MIC: Salmonella enterica, read-out: Minimum inhibiting concentration (MIC)
Method: as §1, §2, §3

[12] = tested on: Klebsiella pneumoniae; test: as above; format: cell-based; settings: for MIC: read-out: Minimum inhibiting concentration (MIC)
Method: as §1, §2, §3

[13] = tested on: bacterial cell wall synthesis; settings: in words; literature; cited from earlier work
[14] = tested on: Enterococcus cloacae; test: Antibacterial activity, MIC by Method 1 (method of Atherton et al); format: cell-based
Method: as §1, §2, §3

Molecule | MIC [2] | MIC [3] | MIC [4] | MIC [5] | MIC [6] | MIC [7] | MIC [8] | MIC [9] | MIC [10] | MIC [11] | MIC [12] | further results
CC(N)P(=O)(O)O (stereo not drawn) [1-aminoethylphosphonic acid] | – | – | – | – | – | – | – | – | – | – | – | inhibition of racemase activity [1]: inhibiting racemase activity
CCC[C@H](N)C(=O)NC(CP(=O)(O)C(C)N)C(=O)O (stereo partly drawn) [Compound No. 6-1, (1-Aminoethyl)(2-L-norvalylamino-2-carboxyethyl)phosphinic acid] | 16 µg/mL (≈ 54.2 µM) | 16 µg/mL (≈ 54.2 µM) | 256 µg/mL (≈ 867 µM) | 32 µg/mL (≈ 108 µM) | 64 µg/mL (≈ 217 µM) | 16 µg/mL (≈ 54.2 µM) | > 256 µg/mL | > 256 µg/mL | 1 µg/mL (≈ 3.39 µM) | 128 µg/mL (≈ 433 µM) | – | –
CSCC[C@H](N)C(=O)NC(CP(=O)(O)C(C)N)C(=O)O (stereo partly drawn) [Compound No. 10, (1-Aminoethyl)(2-L-methionylamino-2-carboxyethyl)phosphinic acid] | 64 µg/mL (≈ 196 µM) | 2 µg/mL (≈ 6.11 µM) | 256 µg/mL (≈ 782 µM) | 4 µg/mL (≈ 12.2 µM) | 256 µg/mL (≈ 782 µM) | 32 µg/mL (≈ 97.8 µM) | > 256 µg/mL | > 256 µg/mL | 8 µg/mL (≈ 24.4 µM) | > 256 µg/mL | > 256 µg/mL | –
CCC[C@H](NC(=O)[C@H](C)N)C(=O)NC(CP(=O)(O)C(C)N)C(=O)O (stereo partly drawn) [Compound No. 20, (1-Aminoethyl)(2-L-alanyl-L-norvalylamino-2-carboxyethyl)phosphinic acid] | 0.5 µg/mL (≈ 1.36 µM) | ≤ 0.25 µg/mL | ≤ 0.25 µg/mL | 256 µg/mL (≈ 699 µM) | 0.5 µg/mL (≈ 1.36 µM) | ≤ 0.25 µg/mL | 0.5 µg/mL (≈ 1.36 µM) | 256 µg/mL (≈ 699 µM) | 0.5 µg/mL (≈ 1.36 µM) | 0.5 µg/mL (≈ 1.36 µM) | ≤ 0.25 µg/mL | –
CC(N)C(=O)NC(C)P(=O)(O)O (stereo not drawn) [alaphosphalin] | – | – | – | – | – | – | – | – | – | – | – | antibacterial action / inhibition of bacterial cell wall synthesis [13]: antibacterial action
(D-1-aminoethyl)(2-L-nor-valylamino -2-L- or -D-carboxyethyl)phosphinic acid [6-2] | – | – | – | – | – | – | – | – | – | – | – | Minimum inhibiting concentration (MIC) [2]: 8 µg/mL; Minimum inhibiting concentration (MIC) [3]: 1 µg/mL; Minimum inhibiting concentration (MIC) [4]: 64 µg/mL; Minimum inhibiting concentration (MIC) [14]: 16 µg/mL; Minimum inhibiting concentration (MIC) [5]: 8 µg/mL; Minimum inhibiting concentration (MIC) [7]: 4 µg/mL; Minimum inhibiting concentration (MIC) [8]: 128 µg/mL; Minimum inhibiting concentration (MIC) [9]: > 256 µg/mL; Minimum inhibiting concentration (MIC) [10]: 1 µg/mL; Minimum inhibiting concentration (MIC) [11]: 32 µg/mL; Minimum inhibiting concentration (MIC) [12]: 64 µg/mL
